The values below come from article PMC11310598, “Gestodene, a novel positive allosteric modulator of PAR1, enhances PAR1-mediated human platelet aggregation” (Frontiers in Pharmacology, 2024).

Structures are written as SMILES.

The term EC50 denotes the concentration giving half of the maximal effect.

In the experiment the target is T1, Protease-activated receptor 1 (PAR1) (Homo sapiens, UniProt P25116).
T1 construct: gene F2R; endogenous PAR1 in HT29 cells
T1 sequence (P25116 42-425): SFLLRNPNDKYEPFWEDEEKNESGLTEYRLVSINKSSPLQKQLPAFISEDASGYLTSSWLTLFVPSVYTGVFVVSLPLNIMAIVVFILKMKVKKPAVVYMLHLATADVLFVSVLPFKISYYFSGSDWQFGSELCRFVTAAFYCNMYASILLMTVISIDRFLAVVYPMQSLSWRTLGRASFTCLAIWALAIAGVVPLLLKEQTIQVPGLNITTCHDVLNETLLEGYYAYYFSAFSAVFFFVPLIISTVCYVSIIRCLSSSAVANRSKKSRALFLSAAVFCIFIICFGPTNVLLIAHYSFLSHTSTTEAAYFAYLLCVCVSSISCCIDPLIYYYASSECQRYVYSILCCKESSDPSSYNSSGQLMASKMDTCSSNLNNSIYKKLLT
As to the kind of experiment: Fluo-4 intracellular calcium, potentiation of thrombin or PAR1-AP response; blocked by vorapaxar. In kind it is cell-based.

As for `C#C[C@]1(O)C=C[C@H]2[C@@H]3CCC4=CC(=O)CC[C@@H]4[C@H]3CC[C@@]21CC` [gestodene], the EC50 was 4.54 ± 0.27 µM.
